From patent US4351954A (priority 1979, dated 1982) come the findings set out here.

For one assay, the system named is acid phosphatase. Put plainly: Enzyme inhibiting activity. Type of assay: biochemical. The note with it: pH 5, 37° C. for 20 minutes. The procedure: A 2×10^-4 M aqueous solution of fluorine-containing amino acid was prepared by adding a fluorine-containing amino acid, viz. CF2 ClCHFCH2 CH(NH2)CO2 H, dissolved in a small amount of methanol to a mixture consisting of 0.1 cc of a 0.025% aqueous solution of acid phosphatase, 0.1 mol of a substrate, 0.05 cc of DPNP, 0.25 cc of water and a 0.1 N sodium acetate (pH 5) as a buffer. The resultant mixture was incubated at 37° C. for 20 minutes. At the end of the 20 minutes, the reaction proceeding in the mixture was stopped by adding 3 cc of an aqueous NaOH solution to the mixture. The mixture was assayed for absorption at a wavelength of 422 mμ.
When the procedure was repeated by using a 1×10^-3 M aqueous solution of CF2 ClCFClCH(CH3)CH(NH2)CO2 H, the enzyme inhibition ratio was 37%.

The test system of assay [1] is diamondback moths (Plutella maculipennis Curtis). Put plainly: Insecticidal activity, treated cabbage leaves fed to moths. Type of assay: in vivo. The note with it: 240 h, cabbage leaves immersed in 500-ppm aqueous solution, after 10 days, read-out: insects dead. An excerpt: Cabbage leaves were immersed in a 500-ppm aqueous CF2 BrCF2 CH2 CH(NH2)CO2 H solution, removed from the solution and dried. They were placed in a Petri dish, in which a group of diamondback moths (Plutella maculipennis Curtis) were fed on the cabbage leaves. After 10 days, 70% of the insects were dead. When the same number of diamondback moths were fed on cabbage leaves which had not been given the treatment, only 10% of the insects were dead after 10 days.

Assay [2] relates to blast (Pyricularia oryzae Cavara). Type of assay: cell-based. The note with it: paper discs immersed in 500-ppm aqueous solution; after two days; qualitative.
Assay [3] deals with bacterial leaf blight (Xanthomonas oryzae Dowson). Type of assay: cell-based. The note with it: paper discs immersed in 500-ppm aqueous solution; after two days; qualitative.
Assay [4] concerns pickerelweed (Monochloria vaginalis var. plantaginea). Put plainly: Herbicidal activity, miniature paddy field. The note with it: 1% aqueous solution, after 15 days. Type of assay: in vivo. An excerpt:
(§1) Paddy-field soil kneaded in a concrete mixer was placed in 500-ml plastic beakers. Seeds of barnyardgrass (Echinochloa crusgalli Beauv.) were scattered on the soil and incorporated in the soil to a depth of about 2 cm from the surface. Afterward, the seeds of pickerelweed (Monochloria vaginalis var. plantaginea) and purple loosestrife (Lythrum anceps) were scattered on the surface of soil. Then, slender spikerush (Eleocharis acicularis) and rice were transplanted to the soil. The soil in the beakers was inundated to a depth of about 3 cm. After two days, 1% aqueous solution of CF2 ClCFClCH2 CH(NH2)CO2 H and CF2 BrCF2 CH2 CH(NH2)CO2 H were applied to the soil in the beakers at dosage rates of 1000 g, 500 g, and 250 g per 10 acres with the aid of a pipet. After 15 days, the miniature paddy fields were examined.

Assay [5] relates to purple loosestrife (Lythrum anceps). As to the kind of experiment: Herbicidal activity, miniature paddy field. Type of assay: in vivo. Particulars: 1% aqueous solution, after 15 days.
Excerpt: as §1

Assay [6] concerns black spot (Alternaria kikuchiana Tanka). Type of assay: cell-based.
The subject of assay [7] is melanose (Diaporthe citri Wolf). Type of assay: cell-based.

For `CC(C(N)C(=O)O)C(F)(Cl)C(F)(F)Cl` (stereo not shown) [CF2 ClCFClCH(CH3)CH(NH2)CO2 H, 2-amino-3-methyl-4,5-dichloro-4,5,5-trifluoropentanoic acid], the enzyme inhibition ratio in the assay on acid phosphatase (1×10^-3 M, 1000 µM) is 37%.
`NC(CC(F)C(F)(F)Cl)C(=O)O` (stereo not shown) [CF2 ClCHFCH2 CH(NH2)CO2 H, 2-amino-4,5,5-trifluoro-5-chloropentanoic acid] had an enzyme inhibition in the assay with acid phosphatase (2×10^-4 M) of 58%.
In the case of `NC(CC(F)(F)C(F)(F)Br)C(=O)O` (stereo not shown) [CF2 BrCF2 CH2 CH(NH2)CO2 H, 2-amino-4,4,5,5-tetrafluoro-5-bromopentanoic acid], the mortality at 500 µg/mL in assay [1] stood at 70%. In assay [2], the “growth of the germs of blast” value was “impeded the growth”. Further, in assay [3], the “growth of the germs of bacterial leaf blight” value is listed as “impeded the growth”. Also, the destruction of pickerelweed entry in assay [4] (250 g per 10 acres) is reported as “half destroyed”; in assay [4] (500 g per 10 acres), “half destroyed”; in assay [4] (1000 g per 10 acres), “completely destroyed”. Also, the entries for the “destruction of purple loosestrife” value in assay [5] (250 g per 10 acres), in assay [5] (500 g per 10 acres) and in assay [5] (1000 g per 10 acres) were “half destroyed”, “half destroyed” and “completely destroyed”, respectively.
For `NC(CC(F)(Cl)C(F)(F)Cl)C(=O)O` (stereo not shown) [CF2 ClCFClCH2 CH(NH2)CO2 H], the “growth of the germs of black spot” value in assay [6] is recorded as “impeded the growth”. In assay [7], the “growth of the germs of melanose” value is “impeded the growth”. Moreover, the destruction of pickerelweed entry in assay [4] (250 g per 10 acres), in assay [4] (500 g per 10 acres) and in assay [4] (1000 g per 10 acres) was “completely destroyed” in each case. For the same compound, the “destruction of purple loosestrife” value in assay [5] (250 g per 10 acres), in assay [5] (500 g per 10 acres) and in assay [5] (1000 g per 10 acres) was “completely destroyed” each time.
